Test results published in ChEMBL document CHEMBL1201862, “PubChem BioAssay data set” (2004).
The source made the active and inactive calls. Where a SMILES comes first, the peptide text is derived from it. [ ]: non-standard residue; d: D form. The star is where a group is joined. ξ: configuration not given here. Cbz = O=C(OCc1ccccc1)*; ξL = CC(C)CC(N)C(=O)O; ξP = O=C(O)C1CCCN1

Test system: Streptococcus sp. 'group A'
Experiment: Streptococcus pyogenes SK(-)GAS viability under kanamycin – luminescence, BacTiterGlo, confirmation, counter-screen for streptokinase expression inhibitor project, dose response (AID 1900)
Format: functional, organism-based
Conditions: not given

| Structure (SMILES) | EC50 |
| --- | --- |
| N#CCC(=O)Nc1ccc(C(=O)OC(C(=O)Nc2cc(C(F)(F)F)ccc2Cl)c2ccccc2)cc1 (centres undefined) | 2.31 µM (active) |
| O=C(Nc1ccc(F)cc1)c1nc(O)c2nnn(Cc3cccc4ccccc34)c2n1 | 2.58 µM (active) |
| C[C@H]1CC[C@@]2(C)[C@@H](CC[C@@H]3[C@@H]2CC[C@]2(C)[C@@H](O)CC[C@@H]32)C1 | 0.643 µM (active) |

Molecular target: T1, Heat shock factor protein 1 (Mus musculus, UniProt P38532)
T1 sequence (P38532 whole entry): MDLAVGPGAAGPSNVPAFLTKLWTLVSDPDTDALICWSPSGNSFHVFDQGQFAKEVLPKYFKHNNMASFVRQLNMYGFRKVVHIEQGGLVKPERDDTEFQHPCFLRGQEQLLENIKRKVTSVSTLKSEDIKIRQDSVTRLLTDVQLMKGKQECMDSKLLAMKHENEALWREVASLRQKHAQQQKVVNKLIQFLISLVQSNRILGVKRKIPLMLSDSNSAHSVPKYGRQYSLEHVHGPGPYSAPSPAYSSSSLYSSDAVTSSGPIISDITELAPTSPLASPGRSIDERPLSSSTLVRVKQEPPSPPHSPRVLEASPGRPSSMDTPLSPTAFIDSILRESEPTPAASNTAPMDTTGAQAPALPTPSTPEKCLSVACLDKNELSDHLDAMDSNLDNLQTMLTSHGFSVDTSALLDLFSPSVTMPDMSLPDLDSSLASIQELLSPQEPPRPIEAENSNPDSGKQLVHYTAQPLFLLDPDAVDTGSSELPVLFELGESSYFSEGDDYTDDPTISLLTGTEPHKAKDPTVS
Experiment: decrease of HSF1-responsive luciferase luminescence – cell-based, NIH3T3, dose retest, confirmation (AID 2382);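 also: NIH3T3 fibroblasts with HSF1-driven luciferase reporter stressed by proteasome inhibitor MG132; luminescence from HSF1-driven luciferase expression after 8 hours of MG132 stress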
Format: functional
Conditions: not given

| Structure (SMILES) | EC50 |
| --- | --- |
| C/C(CC(=O)Nc1ccc(N(C)C)cc1)=N\NC(=O)Cc1csc(N)n1 | > 195 µM (not active) |
| COC(=O)CCN1CCc2cc(N=Nc3ccc([N+](=O)[O-])cc3)ccc21 | 40.1 µM (active) |
| CC(C)NC(=O)CC(=O)N/N=C\c1ccccc1C(=O)O | > 195 µM (not active) |

Other lines, results leading:

| EC50 | Structure (SMILES) |
| --- | --- |
| > 195 µM (not active) | O=C(NCc1ccccc1Cl)C1CCN(S(=O)(=O)N2CCCC2)CC1 |
| > 195 µM (not active) | COCCn1c(=O)[nH]c2cc(C(=O)NC3CCCCCC3)ccc2c1=O |
| > 195 µM (not active) | CC1(C(=O)NCCCNc2ncc(C(F)(F)F)cc2Cl)C=CC2(CCCCC2)N1C(=O)c1ccccc1 (centres undefined) |
| > 195 µM (not active) | CN(C(=O)C1CCOC1)c1nnc(-c2ccncc2)s1 (centres undefined) |
| > 195 µM (not active) | O=C(Nc1nnc(S(=O)(=O)N2CCCCCC2)s1)c1ccccc1Cl |
| > 195 µM (not active) | CC1CCCC(C)N1C(=O)CSc1ccc(-c2ccc3c(c2)OCCO3)nn1 (centres undefined) |
| > 195 µM (not active) | COc1cc(N)ccc1C(=O)O |
| > 195 µM (not active) | CC(C)CC(NC(=O)C1CCCN1C(=O)[C@@H](C)NC(=O)OCc1ccccc1)C(=O)NCC(N)=O (some centres undefined) (Cbz-[dA][ξP][ξL]G-NH2) |
| > 195 µM (not active) | CC(C)(C)c1nc(N2CCN(C(=O)c3ccco3)CC2)c2nnn(Cc3ccccc3)c2n1 |
| > 195 µM (not active) | COC(=O)C1CCN(C(=O)c2sc3nc(-c4ccccc4)cn3c2C)CC1 |
| > 195 µM (not active) | Oc1ccccc1/C=N/Nc1nnn[nH]1 |

Test system: not listed separately
Experiment: Trypanosoma cruzi growth suppression in host cells – NIH3T3 host cells, beta-gal luminescence, confirmation (AID 2044);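 also: intracellular parasites grown in NIH/3T3 mouse fibroblasts as host cells; luminescent beta-galactosidase reporter signal from transgenic T. cruzi replicating inside host cells; inhibitors lower the luminescence signal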
Format: functional, cell-based
Conditions: not given

| Structure (SMILES) | EC50 |
| --- | --- |
| COc1ccc(Nc2nc(-c3cccc([N+](=O)[O-])c3)nc3ccccc23)cc1 | 1.71 µM (active) |

Test system: not listed separately
Experiment: NIH3T3 cell viability loss – ATP luminescence, mouse fibroblasts, counter-screen, dose response (AID 2010);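 also: cells exposed to compound for about 90 hours before reading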
Format: functional, cell-based
Conditions: not given

| Structure (SMILES) | EC50 |
| --- | --- |
| COc1ccc(Nc2nc(-c3cccc([N+](=O)[O-])c3)nc3ccccc23)cc1 | > 60 µM (not active) |

Test system: Streptococcus
Experiment: GAS UMAA2166 growth inhibition – luminescence, BacTiterGlo, counter-screen for streptokinase expression inhibitor project, dose response (AID 1915);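 also: potency for reduction of bacterial viability or growth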
Format: functional, organism-based
Conditions: not given

| Structure (SMILES) | EC50 |
| --- | --- |
| N#CCC(=O)Nc1ccc(C(=O)OC(C(=O)Nc2cc(C(F)(F)F)ccc2Cl)c2ccccc2)cc1 (centres undefined) | 6.92 µM (active) |
| O=C(Nc1ccc(F)cc1)c1nc(O)c2nnn(Cc3cccc4ccccc34)c2n1 | 37.2 µM (active) |
| C[C@H]1CC[C@@]2(C)[C@@H](CC[C@@H]3[C@@H]2CC[C@]2(C)[C@@H](O)CC[C@@H]32)C1 | 2.65 µM (active) |

Test system: not listed separately
Experiment: Luminescence Cell-Based Dose Retest to Confirm Inhibitors of Cancer Stem Cells. [Related pubchem assays (depositor defined):AID2717, AID2721]
Format: functional
Conditions: Homo sapiens

| Structure (SMILES) | AC50 |
| --- | --- |
| Sc1nnc(-c2ccc(Cl)cc2)n1Cc1ccccc1 | 0.734 µM (active) |
| COc1ccc(Nc2nc(-c3cccc([N+](=O)[O-])c3)nc3ccccc23)cc1 | 2.83 µM (active) |
| Cc1ccc(C(=O)CSc2nc(-c3ccccc3)ccc2C#N)cc1 | 3.28 µM (active) |
| CCCCCCSc1cccc(-c2nc3ccc(C)cn3c2NCc2ccccc2)c1 | 3.14 µM (active) |
| COc1ccc(-c2sc3ccccc3c2-c2ccc(OCCN3CCCCC3)cc2)cc1 | 0.914 µM (active) |
| CC(Nc1nc(-c2ccc(Cl)cc2)cs1)c1nc2cc(Cl)c(N3CCCCC3)cc2n1CCOCCO (centres undefined) | 1.1 µM (active) |

Molecular target: Cytochrome P450 2C19 (Homo sapiens, UniProt P33261)
Experiment: Cytochrome panel assay with activity outcomes. Panel member name: p450-cyp2c19 Compounds with AC50 equal or less than 10 uM are considered active
Format: functional
Conditions: read-out: AC50

Cytochrome P450 2C19, sequence (P33261 whole entry): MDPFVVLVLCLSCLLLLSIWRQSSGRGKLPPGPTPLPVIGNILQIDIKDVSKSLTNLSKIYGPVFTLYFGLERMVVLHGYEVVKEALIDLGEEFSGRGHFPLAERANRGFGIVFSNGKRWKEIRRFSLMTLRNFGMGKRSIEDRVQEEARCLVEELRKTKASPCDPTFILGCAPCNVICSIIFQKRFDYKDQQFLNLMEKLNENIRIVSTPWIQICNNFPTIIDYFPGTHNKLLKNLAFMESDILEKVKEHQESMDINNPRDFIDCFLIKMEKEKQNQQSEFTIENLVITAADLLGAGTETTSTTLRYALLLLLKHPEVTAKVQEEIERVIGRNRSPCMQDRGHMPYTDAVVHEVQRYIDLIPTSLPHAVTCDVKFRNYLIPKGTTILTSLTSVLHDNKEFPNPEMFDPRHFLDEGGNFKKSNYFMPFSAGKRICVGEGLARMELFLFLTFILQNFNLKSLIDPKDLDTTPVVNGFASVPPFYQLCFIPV

| Structure (SMILES) | AC50 |
| --- | --- |
| Cc1cccc(-n2c(S)nnc2Cn2nc(C)c([N+](=O)[O-])c2C)c1 | 20 µM (inconclusive) |
| O=[N+]([O-])c1cccnc1N1CCCCC1 | 0.00562 µM (inconclusive) |

Further lines, results first:

| AC50 | Structure (SMILES) |
| --- | --- |
| 25.1 µM (inconclusive) | COCCn1c(=O)c(-c2cccs2)nc2cncnc21 |
| 10 µM (inconclusive) | CCCCCCN(CCCCCC)C(=O)Cc1c(-c2ccc(Cl)cc2)[nH]c2ccc(Cl)cc12 |
| 31.6 µM (inconclusive) | Cc1cccc(CNc2ncncc2-c2ccc(C(=O)N(C)C)cc2)c1 |

Test system: INS1
Experiment: INS-1E survival protection against cytokine death – cell-based, luminescence, retest, dose response (AID 449756);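 also: cell death triggered by IL-1 beta plus TNF-alpha plus IFN-gamma mixture; protective hits raise ATP signal compared with cytokine alone wells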
Format: functional
Conditions: Rattus norvegicus

| Structure (SMILES) | AC50 |
| --- | --- |
| COc1ccc(-c2sc3ccccc3c2-c2ccc(OCCN3CCCCC3)cc2)cc1 | 8.34 µM (active) |

Molecular target: T2, Cytochrome P450 1A2 (Homo sapiens, UniProt P05177);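 also: PubChem cytochrome P450 panel assay, CYP1A2 panel member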
T2 sequence (P05177 whole entry): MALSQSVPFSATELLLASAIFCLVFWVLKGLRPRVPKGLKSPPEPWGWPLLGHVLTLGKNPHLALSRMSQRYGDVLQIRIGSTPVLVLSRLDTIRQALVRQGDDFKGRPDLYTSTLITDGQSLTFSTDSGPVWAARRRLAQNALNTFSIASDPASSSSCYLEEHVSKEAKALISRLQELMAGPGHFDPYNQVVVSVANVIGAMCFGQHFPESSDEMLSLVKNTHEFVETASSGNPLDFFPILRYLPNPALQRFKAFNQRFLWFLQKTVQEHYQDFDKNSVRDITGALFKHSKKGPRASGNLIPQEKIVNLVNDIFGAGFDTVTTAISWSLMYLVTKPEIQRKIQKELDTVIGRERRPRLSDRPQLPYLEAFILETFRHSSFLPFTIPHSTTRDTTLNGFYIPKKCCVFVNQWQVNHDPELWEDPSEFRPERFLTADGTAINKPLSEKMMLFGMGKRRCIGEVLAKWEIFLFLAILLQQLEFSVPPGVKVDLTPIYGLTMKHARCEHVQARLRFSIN
Conditions: not given

| AC50 | Structure (SMILES) |
| --- | --- |
| 31.6 µM (inconclusive) | CCCCCCN(CCCCCC)C(=O)Cc1c(-c2ccc(Cl)cc2)[nH]c2ccc(Cl)cc12 |
| 15.8 µM (inconclusive) | Cc1cccc(CNc2ncncc2-c2ccc(C(=O)N(C)C)cc2)c1 |

Molecular target: Cytochrome P450 2C9 (Homo sapiens, UniProt P11712)
Conditions: not given

Cytochrome P450 2C9, sequence (P11712 whole entry): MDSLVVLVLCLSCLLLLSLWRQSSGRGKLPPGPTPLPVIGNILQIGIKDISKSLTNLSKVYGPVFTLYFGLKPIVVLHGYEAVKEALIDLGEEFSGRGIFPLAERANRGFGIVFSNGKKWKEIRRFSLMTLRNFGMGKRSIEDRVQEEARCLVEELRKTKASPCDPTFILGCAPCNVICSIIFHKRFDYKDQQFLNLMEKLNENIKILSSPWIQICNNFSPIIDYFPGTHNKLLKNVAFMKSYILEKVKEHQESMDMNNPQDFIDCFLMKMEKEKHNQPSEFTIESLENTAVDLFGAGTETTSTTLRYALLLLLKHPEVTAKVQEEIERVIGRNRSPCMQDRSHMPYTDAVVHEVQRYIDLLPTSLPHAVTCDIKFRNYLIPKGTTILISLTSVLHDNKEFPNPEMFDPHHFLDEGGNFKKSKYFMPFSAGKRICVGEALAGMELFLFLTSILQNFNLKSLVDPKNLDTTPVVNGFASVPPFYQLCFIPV

| AC50 | Structure (SMILES) |
| --- | --- |
| 20 µM (inconclusive) | COCCn1c(=O)c(-c2cccs2)nc2cncnc21 |
| 7.08 µM (inconclusive) | Cc1cccc(-n2c(S)nnc2Cn2nc(C)c([N+](=O)[O-])c2C)c1 |
| 3.16 µM (inconclusive) | O=[N+]([O-])c1cccnc1N1CCCCC1 |
